# Test results as given in patent US20060263761A1, “Methods and compositions for beryllium-induced Disease” (priority 2005, published 2006).
# Columns and labels:
# Format in all cases: cell-based, human
# [1] = tested on: PBMCs (IFN-γ-producing cells); experiment: IFN-γ ELISPOT assay on PBMCs after BeSO4 exposure; conditions: for ratio of IFN-γ- to IL-2-secreting cells (median): ELISPOT; for subjects demonstrating beryllium-induced IFN-γ production: threshold >1.4 SFU
# Experimental: (§1) In one exemplary method, ELISPOT assays were performed using plates (ImmunoSpot M200, BD Biosciences Pharmingen) that were coated with, IFN-γ or IL-2 capture mAb (BD Biosciences Pharmingen) overnight and blocked with Blocking Solution containing RPMI 1640 supplemented with 10% heat-inactivated fetal bovine serum (Tissue Culture Biologicals, Tulare Calif.), 20 mM HEPES, 1 mM sodium pyruvate, 100 U/ml penicillin, 100 μg/ml streptomycin, and 2 mM L-glutamine (e.g. all from Life Technologies, Gaithersburg Md.) for 2 h at room temperature. Freshly isolated PBMCs (5×10^5 cells/well) were added to wells and incubated overnight at 37° C. in a humidified 5% CO2 atmosphere with medium, PHA, or BeSO4. ELISpot assays were performed in triplicate. The wells were washed, and IFN-γ or IL-2 detection mAbs (BD Biosciences Pharmingen) were added, and the proteins were visualized by successive additions of avidin-horseradish peroxidase and 3-amino-9-ethylcarbazole (AEC) substrate reagent (BD Biosciences Pharmingen). The ELISpot plates were analyzed using a for example a CTL Immunospot Analyzer (Cellular Technology Ltd., Cleveland, Ohio), and results are reported as mean±SD spot-forming units (SFU) per well minus background SFU.
# In one exemplary method ELISPOT assays were performed on fresh PBMCs from 12 healthy control, 18 BeS and 33 CBD subjects (Table 1).
# [2] = tested on: PBMCs (IL-2-producing cells); experiment: IL-2 ELISPOT assay on PBMCs after BeSO4 exposure
# Experimental: as §1
# PBMCs = experiment: Lymphocyte proliferation assay ([3H]thymidine, BeLPT)
# Experimental: In one exemplary method, proliferation assays were performed using PBMCs (2.5×10^5 cells/well) cultured for 4-6 days in complete culture media containing RPMI 1640 supplemented with 10% heat-inactivated human serum (Gemini Bio-Products, Woodland Calif.) with the following stimulants: medium, 2.5 μg/ml phytohemagglutinin (PHA), 1×10^−4 M or 1×10^−5 M BeSO4 (example of one beryllium composition). The wells were pulsed with 1 μCi of [^3H] thymidine for 18 hours, and incorporation of radioactivity was determined by β-emission spectroscopy. Proliferation assays were performed in quadruplicate. The data are presented as stimulation index (SI) with a positive response defined as […]. Any other means known in the art for assessing proliferation of cells may be used.
# In another exemplary method, PBMCs from healthy control, BeS, and CBD subjects described above were examined for beryllium-induced proliferation at the same time as the ELISPOT assays were performed. […] The median SI for PBMCs from BeS and CBD patients exposed to 1×10^−4 M BeSO4 was 2.8 (range, 0.5-42) and 3.5 (0.6-85) (P=0.49), respectively. The findings were similar when expressed as ΔCPM, with the median ΔCPM from BeS and CBD patients exposed to 1×10^−4 M BeSO4 being 917 (range, 0-36,355) and 1514 (range, 0-20,884), respectively (P=0.85). […] In one exemplary method, ELISPOT analysis for IFN-γ was able to detect the presence of beryllium-specific T cells in blood. […] In 6 BeS and 7 CBD subjects, the ELISPOT assay detected IFN-γ- and/or IL-2-secreting cells in response to beryllium exposure in culture while no beryllium-induced proliferation was detected at the time of the study. […] For example, in CBD patients, the median number of beryllium-induced, IFN-γ-expressing cells was 83 SFU (range, 0-645) in subjects with and 48 SFU (range, 10-112; P=0.3) in subjects without beryllium-induced proliferation. Beryllium-induced proliferation occurred in the absence of detectable cytokine secretion in only 2 CBD patients, while both ELISPOT analysis and proliferation assay were negative in 2 BeS and 3 CBD patients.
# CD4+ T cells = experiment: Intracellular cytokine staining (IFN-γ, IL-2) by flow cytometry
# Experimental: . Cells were stained with mAbs directed against CD4 and CD8 (BD Biosciences Pharmingen) followed by fixation, permeabilization, and staining with mAbs directed against IFN-γ and/or IL-2 (Caltag, Burlingame, Calif.). The lymphocyte population was identified using forward and 90° light scatter patterns, and fluorescence intensity was analyzed using a FACScaliber cytometer (Becton Dickinson) as previously described but any means known in the art may be used to identify this population.
# For example, the ratio of IFN-γ- to IL-2-secreting cells determined by ELISPOT analysis was 2.7 (median; range, 0.5-167) for CBD patients (n=33) and 1.8 (median; range, 0.5-6.9) for BeS patients (n=18) (P=0.07). To further address this issue, intracellular cytokine staining was performed on blood from 11 of the 33 CBD subjects who had large enough populations (>0.04%) of circulating beryllium-specific CD4+ T cells to allow for evaluation of Th1-type cytokine expression after beryllium exposure in culture. […] IFN-γ and IL-2 expression in CD4− T cells was equal to background levels. In the peripheral blood, the beryllium-specific CD4+ T cells appeared equally divided into two groups: T cells capable of expressing both IFN-γ and IL 2 and another expressing only IFN-γ (FIG. 4B). Similar to T cells in the lung (12), almost no cells were detected that produced IL-2 in the absence of IFN-γ expression. In these eleven CBD patients, the median percentage of IFN-γ-expressing CD4+ T cells was 0.29% (range, 0.1%-1.1%) compared to 0.07% for IL-2 (0%-0.49%; P=0.007) (FIG. 4C).
# [3] = representative CBD subject, FIG. 4A, following beryllium exposure
compound,measurement,setting,value
"O=S(=O)([O-])[O-].[Be+2] [BeSO4, Beryllium sulfate]",ratio of IFN-γ- to IL-2-secreting cells (median),[1]; BeS patients (n=18),1.8
same,median number of IFN-γ producing cells in blood,"[1]; BeS subjects (n=18), 1×10^−4 M BeSO4",6.3 SFU
same,subjects demonstrating beryllium-induced IFN-γ production,"[1]; BeS subjects, 13 of 18, 1×10^−4 M BeSO4",72%
same,patients with a positive ELISPOT assay,"[1]; CBD and BeS subjects, 41 of 51",80%
same,median number of IFN-γ producing cells in blood,"[1]; CBD patients (n=33), 1×10^−4 M BeSO4",52 SFU
same,ratio of IFN-γ- to IL-2-secreting cells (median),[1]; CBD patients (n=33),2.7
same,"median number of beryllium-induced, IFN-γ-expressing cells",[1]; CBD patients with beryllium-induced proliferation,83 SFU
same,"median number of beryllium-induced, IFN-γ-expressing cells",[1]; CBD patients without beryllium-induced proliferation,48 SFU
same,subjects demonstrating beryllium-induced IFN-γ production,"[1]; CBD subjects, 28 of 33, 1×10^−4 M BeSO4",85%
same,IFN-γ SFU (mean±SD) of the one healthy control with a positive response,"[1]; healthy control subject, 1×10^−4 M BeSO4",2.0±2.1 SFU per 5×10^5 cells
same,median number of IFN-γ producing cells in blood,"[1]; normal control subjects (n=12), 1×10^−4 M BeSO4",0.4 SFU
same,median number of IFN-γ producing cells in blood,"[1]; treated CBD subjects, 1×10^−4 M BeSO4",117
same,median number of IFN-γ producing cells in blood,"[1]; untreated CBD subjects, 1×10^−4 M BeSO4",34
same,median number of IL-2-producing cells,[2]; BeS subjects,2.8 SFU
same,median number of IL-2-producing cells,[2]; CBD patients,16 SFU/5×10^5 cells
same,median number of IL-2-producing cells,[2]; normal control subjects,0 SFU
same,patients with a positive proliferative response,"PBMCs; BeS patients, 10 of 18, 1×10^−4 M BeSO4",55%
same,median SI (stimulation index),"PBMCs; BeS patients, 1×10^−4 M BeSO4",2.8
same,median ΔCPM,"PBMCs; BeS patients, 1×10^−4 M BeSO4",917
same,subjects with a positive beryllium-induced proliferative response (BeLPT),"PBMCs; CBD and BeS subjects, 33 of 51",65%
same,patients with a positive proliferative response,"PBMCs; CBD patients, 23 of 33, 1×10^−4 M BeSO4",70%
same,median SI (stimulation index),"PBMCs; CBD patients, 1×10^−4 M BeSO4",3.5
same,median ΔCPM,"PBMCs; CBD patients, 1×10^−4 M BeSO4",1514
same,median SI (stimulation index),"PBMCs; control subjects, 1×10^−4 M BeSO4",0.5
same,median SI (stimulation index),"PBMCs; control subjects, 1×10^−5 M BeSO4",0.7
same,median percentage of IFN-γ-expressing CD4+ T cells,CD4+ T cells; eleven CBD patients,0.29%
same,median percentage of IL-2-expressing CD4+ T cells,CD4+ T cells; eleven CBD patients,0.07%
same,CD4+ T cells expressing IFN-γ,CD4+ T cells; [3],1.1%
same,CD4+ T cells expressing IL-2,CD4+ T cells; [3],0.5%
